Tests used:
Assay in all cases: selective drug sensitivity score (sDSS, relative to normal bone marrow) (sDSS (score)); higher = more potent and effective on the cell line relative to normal bone marrow cells
Conditions in all cases: 72 h
HPB-ALL = tested on: HPB-ALL
KASUMI-2 = tested on: KASUMI-2
COG-LL-319h = tested on: COG-LL-319h
380 = tested on: 380
ALL-PO = tested on: ALL-PO
DND-41 = tested on: DND-41
SUP-B15 = tested on: SUP-B15
SEM cells = tested on: SEM cells
HAL-01 = tested on: HAL-01
MOLT-16 = tested on: MOLT-16
MN-60 = tested on: MN-60
MHH-CALL-2 = tested on: MHH-CALL-2
KOPN-8 = tested on: KOPN-8
MHH-CALL-4 = tested on: MHH-CALL-4
REH = tested on: REH
MOLT-4 = tested on: MOLT-4
NALL-1 = tested on: NALL-1
KASUMI-10 = tested on: KASUMI-10
RCH-ACV = tested on: RCH-ACV
NALM-16 = tested on: NALM-16
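Note: ALL cell lines in 384-well plates, five doses spanning 10,000-fold, each plate scaled between vehicle and 100 µmol/L benzalkonium chloride controls, sDSS an adapted area-under-curve metric.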

SMILES | selective drug sensitivity score (HPB-ALL) | selective drug sensitivity score (KASUMI-2) | selective drug sensitivity score (COG-LL-319h) | selective drug sensitivity score 380 | selective drug sensitivity score (ALL-PO) | selective drug sensitivity score (DND-41) | selective drug sensitivity score (SUP-B15) | selective drug sensitivity score (SEM cells) | selective drug sensitivity score (HAL-01) | selective drug sensitivity score (MOLT-16) | selective drug sensitivity score (MN-60) | selective drug sensitivity score (MHH-CALL-2) | selective drug sensitivity score (KOPN-8) | selective drug sensitivity score (MHH-CALL-4) | selective drug sensitivity score (REH) | selective drug sensitivity score (MOLT-4) | selective drug sensitivity score (NALL-1) | selective drug sensitivity score (KASUMI-10) | selective drug sensitivity score (RCH-ACV) | selective drug sensitivity score (NALM-16)
CN1CCN(C(=O)c2ccc3cc(CCNc4ncnc5ccc(C#N)cc45)ccc3c2)CC1 [Senexin_B] (top concentration 1000 nM) | -0.6 | -0.6 | -0.6 | -0.6 | -0.6 | -0.6 | 2.8 | -0.6 | -0.6 | 1.8 | 1.4 | -0.1 | -0.6 | -0.6 | -0.6 | -0.6 | -0.6 | 4.5 | 2 | -0.6
Clc1ccccc1C(c1ccccc1)(c1ccccc1)n1cccn1 [TRAM-34] (top concentration 1000 nM) | -0.08 | -0.08 | -0.08 | -0.08 | -0.08 | -0.08 | -0.08 | -0.08 | 2.72 | -0.08 | -0.08 | 1.12 | -0.08 | -0.08 | 0.22 | -0.08 | -0.08 | -0.08 | -0.08 | -0.08
C=CC[C@@H]1/C=C(\C)C[C@H](C)C[C@H](OC)[C@H]2O[C@@](O)(C(=O)C(=O)N3CCCC[C@H]3C(=O)O[C@H](/C(C)=C/[C@@H]3CC[C@@H](O)[C@H](OC)C3)[C@H](C)[C@@H](O)CC1=O)[C@H](C)C[C@@H]2OC [Tacrolimus] (top concentration 10000 nM) | 0.28 | -0.72 | 12.7 | 1.88 | 2.08 | 0.68 | 18.3 | 7.88 | 8.58 | 12.1 | -0.32 | 24.6 | 4.68 | -0.12 | 2.68 | 1.38 | 0.48 | -0.72 | 10.7 | 12.5
CCN(c1cc(-c2ccc(CN3CCOCC3)cc2)cc(C(=O)NCc2c(C)cc(C)[nH]c2=O)c1C)C1CCOCC1 [Tazemetostat] (top concentration 10000 nM) | -0.08 | -0.08 | -0.08 | -0.08 | 0.32 | 0.02 | -0.08 | 2.42 | 3.82 | -0.08 | -0.08 | 6.72 | -0.08 | -0.08 | -0.08 | -0.08 | 8.22 | -0.08 | -0.08 | -0.08
COc1cc2c(Nc3ccc(Cl)c(Cl)c3F)ncnc2cc1OC[C@@H]1C[C@@H]2CN(C)C[C@@H]2C1 [Tesevatinib] (top concentration 1000 nM) | 0.64 | -1.36 | -1.36 | -0.96 | 2.34 | 1.44 | -1.36 | 1.44 | 2.44 | 1.74 | 0.24 | 1.44 | -0.86 | 2.34 | -1.36 | -0.86 | -0.06 | -1.06 | 0.64 | -1.36
O=C1CCC(N2C(=O)c3ccccc3C2=O)C(=O)N1 (stereo not given) [Thalidomide] (top concentration 10000 nM) | -0.14 | -0.14 | -0.14 | -0.14 | -0.14 | -0.14 | -0.14 | -0.14 | 0.36 | -0.14 | -0.14 | -0.14 | -0.14 | -0.14 | -0.04 | -0.14 | -0.14 | -0.14 | -0.14 | -0.14
O=C1NC(=O)[C@@H](c2cn3c4c(cccc24)CCC3)[C@@H]1c1c[nH]c2ccccc12 [Tivantinib] (top concentration 1000 nM) | 2.88 | 0.68 | 3.58 | 6.18 | 2.08 | 0.78 | 2.88 | 7.18 | 5.78 | 3.48 | 3.78 | 8.48 | 3.08 | 4.88 | 7.78 | 3.28 | 4.78 | 1.98 | 4.28 | 4.28
C[C@@H]1CCN(C(=O)CC#N)C[C@@H]1N(C)c1ncnc2[nH]ccc12 [Tofacitinib] (top concentration 5000 nM) | -7.86 | -7.86 | -7.86 | -7.86 | -7.86 | 1.74 | -7.86 | -7.86 | -7.86 | -7.86 | -7.86 | -7.86 | -7.66 | -4.96 | -7.66 | -7.86 | -7.86 | -7.86 | -7.86 | -7.86
COc1cc2c(NC3CCN(C(C)C)CC3)nc(C3CCCCC3)nc2cc1OCCCN1CCCC1 [UNC0638] (top concentration 10000 nM) | -3.44 | -4.34 | 8.26 | 0.06 | -1.74 | 3.36 | -1.04 | -2.94 | -4.64 | -1.04 | -2.64 | -2.84 | -4.44 | -3.94 | -0.24 | -3.74 | -5.14 | -3.34 | 0.66 | -3.04
CCCCNc1ncc(C(=O)NCc2ccc(-n3ccnc3)cc2)c(NC2CCC(O)CC2)n1 (stereo not given) [UNC2881] (top concentration 2500 nM) | 0 | 0 | 0 | 0 | 7.2 | 0 | 3.9 | 6.3 | 0.3 | 0.2 | 0 | 0 | 0.2 | 0.5 | 0.2 | 0.4 | 0.6 | 4.9 | 0.4 | 0
CC[C@@H]1CN(C(=O)NCC(F)(F)F)C[C@@H]1c1cnc2cnc3[nH]ccc3n12 [Upadacitinib] (top concentration 10000 nM) | -7.16 | -6.56 | -7.16 | -0.16 | -7.16 | 0.84 | -7.16 | -7.16 | -6.76 | -7.16 | -7.16 | -7.16 | -7.16 | -6.46 | -7.16 | -7.16 | -7.16 | -7.16 | -7.16 | -7.16
O=C(O)CC1CC(c2ccccc2)=NO1 (stereo not given) [VGX-1027] (top concentration 10000 nM) | -0.04 | -0.04 | -0.04 | -0.04 | -0.04 | -0.04 | -0.04 | -0.04 | -0.04 | 0.16 | -0.04 | -0.04 | -0.04 | -0.04 | -0.04 | -0.04 | -0.04 | -0.04 | -0.04 | -0.04
CCCCC(=O)OCC(=O)[C@]1(O)Cc2c(O)c3c(c(O)c2[C@@H](O[C@H]2C[C@H](NC(=O)C(F)(F)F)[C@H](O)[C@H](C)O2)C1)C(=O)c1c(OC)cccc1C3=O [Valrubicin] (top concentration 5000 nM) | -4.12 | 8.38 | 12.9 | 13 | -2.62 | -1.02 | 12.2 | 6.58 | 0.38 | 18.1 | -3.92 | 7.48 | 10.2 | 7.28 | 12.1 | 10.8 | -1.82 | 8.48 | 11.8 | -3.22
CCc1c(C(=O)C(N)=O)c2c(OCC(=O)O)cccc2n1Cc1ccccc1 [Varespladib] (top concentration 10000 nM) | -0.84 | -0.84 | -0.84 | -0.84 | -0.84 | -0.84 | -0.84 | -0.84 | -0.84 | 1.76 | -0.84 | -0.84 | -0.84 | 3.56 | -0.84 | -0.84 | -0.84 | -0.84 | -0.84 | 0.56
CC1(C)CCC(CN2CCN(c3ccc(C(=O)NS(=O)(=O)c4ccc(NCC5CCOCC5)c([N+](=O)[O-])c4)c(Oc4cnc5[nH]ccc5c4)c3)CC2)=C(c2ccc(Cl)cc2)C1 [Venetoclax] (top concentration 1000 nM) | -0.9 | 22.9 | 28.8 | 29 | 30.2 | 2.1 | 34.5 | 21.1 | 20.4 | 6 | -4.4 | 28.7 | 28.9 | 14.2 | 0.9 | 8.88e-16 | 20.5 | 29.5 | -1.3 | 22.6
CCCCOc1nc(N)c2c(n1)N(Cc1cccc(CN3CCCC3)c1)CC(=O)N2 [Vesatolimod] (top concentration 10000 nM) | -3.52 | -3.52 | 0.38 | -3.52 | -3.52 | -2.12 | -3.52 | -3.52 | -3.52 | -3.52 | -2.32 | -3.52 | -3.22 | -3.52 | -3.52 | -3.52 | -3.52 | -3.52 | -3.52 | -3.52
CCC1=C[C@@H]2CN(C1)Cc1c([nH]c3ccccc13)[C@@](C(=O)OC)(c1cc3c(cc1OC)N(C)[C@H]1[C@@](O)(C(=O)OC)[C@H](OC(C)=O)[C@]4(CC)C=CCN5CC[C@]31[C@@H]54)C2 [Vinorelbine] (top concentration 10000 nM) | 14.6 | 17.8 | 12.2 | 23.3 | 17.5 | 11.8 | 27.2 | 24.1 | 1.38 | 24.7 | 1.68 | 19.3 | 25.8 | 8.98 | 26.6 | 20.6 | 16.1 | 15.7 | 25.1 | 18.3

Source: the supplement of paper PMC8967900
